Assay [1] deals with T1, AXL (Homo sapiens, UniProt P30530).
T1 sequence (P30530 26-894): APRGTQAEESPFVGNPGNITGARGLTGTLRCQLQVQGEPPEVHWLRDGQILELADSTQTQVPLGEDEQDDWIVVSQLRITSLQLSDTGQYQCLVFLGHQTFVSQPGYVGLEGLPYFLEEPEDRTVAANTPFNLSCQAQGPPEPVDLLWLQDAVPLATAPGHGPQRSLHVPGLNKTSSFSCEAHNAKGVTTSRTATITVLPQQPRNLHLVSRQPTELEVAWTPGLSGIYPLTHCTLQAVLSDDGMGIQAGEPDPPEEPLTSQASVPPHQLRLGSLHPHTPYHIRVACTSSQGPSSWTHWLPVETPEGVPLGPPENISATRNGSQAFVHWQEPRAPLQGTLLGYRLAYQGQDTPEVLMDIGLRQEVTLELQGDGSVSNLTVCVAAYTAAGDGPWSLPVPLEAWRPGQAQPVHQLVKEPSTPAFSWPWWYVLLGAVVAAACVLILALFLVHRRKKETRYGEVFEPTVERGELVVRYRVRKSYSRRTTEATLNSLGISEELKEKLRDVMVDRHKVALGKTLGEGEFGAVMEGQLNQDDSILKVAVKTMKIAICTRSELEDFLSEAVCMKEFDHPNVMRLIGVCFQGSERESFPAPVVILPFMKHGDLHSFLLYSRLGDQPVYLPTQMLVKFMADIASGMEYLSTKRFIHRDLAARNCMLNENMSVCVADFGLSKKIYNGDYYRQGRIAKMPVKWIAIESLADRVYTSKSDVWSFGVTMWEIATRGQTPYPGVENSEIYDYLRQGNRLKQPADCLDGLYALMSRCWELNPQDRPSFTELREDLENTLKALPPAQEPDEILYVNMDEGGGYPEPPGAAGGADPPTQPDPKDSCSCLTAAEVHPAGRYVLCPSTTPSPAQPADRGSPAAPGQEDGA
The experiment in a line: TR-FRET kinase activity assay, AXL. Particulars: ATP at Km, 60 minutes. Format: biochemical. Here is the method:
(§1) IC50 values for compound inhibition of AXL, FLT3, MERTK and TYRO3 activity were determined using a TR-FRET activity assay. A peptide substrate with a fluorescent label is phosphorylated on a tyrosine by each enzyme, where the now phosphorylated product is bound by a Europium-labeled antibody specific to that phosphorylation site. The proximity between the antibody and the substrate gives a signal known as TR-FRET. As the enzyme is inhibited by compound, less phosphorylated peptide product is made, causing a decrease in overall signal.
(§2) Activity assays were performed in a 384-well, small volume, black microplates in an active enzyme volume of 10 uL and final developed volume of 20 uL. Final assay conditions are 50 mM HEPES pH 7.5, 10 mM MgCl2, 1 mM EGTA, 0.01% Brij 35 and 1 mM DTT, all at RT. Enzyme, substrate-labeled peptide and compound are mixed, and then the reaction is initiated with the addition of ATP at Km concentration for each enzyme. The reaction is allowed to run 60 minutes and then quenched with a 12.5 mM EDTA (ethylenediamine tetraacetic acid) solution. The plate is then developed with the addition of Europium-labeled antibody for a final volume of 20 uL and is then incubated for 30 minutes in darkness. Plates are read in a PHERASTAR® plate reader. Data are analyzed in GraphPad PRISM.
Background: In TR-FRET formats the signal depends on donor and acceptor labels being close together.

The target of assay [2] is T2, FLT3 (Homo sapiens, UniProt P36888).
T2 sequence (P36888 27-993): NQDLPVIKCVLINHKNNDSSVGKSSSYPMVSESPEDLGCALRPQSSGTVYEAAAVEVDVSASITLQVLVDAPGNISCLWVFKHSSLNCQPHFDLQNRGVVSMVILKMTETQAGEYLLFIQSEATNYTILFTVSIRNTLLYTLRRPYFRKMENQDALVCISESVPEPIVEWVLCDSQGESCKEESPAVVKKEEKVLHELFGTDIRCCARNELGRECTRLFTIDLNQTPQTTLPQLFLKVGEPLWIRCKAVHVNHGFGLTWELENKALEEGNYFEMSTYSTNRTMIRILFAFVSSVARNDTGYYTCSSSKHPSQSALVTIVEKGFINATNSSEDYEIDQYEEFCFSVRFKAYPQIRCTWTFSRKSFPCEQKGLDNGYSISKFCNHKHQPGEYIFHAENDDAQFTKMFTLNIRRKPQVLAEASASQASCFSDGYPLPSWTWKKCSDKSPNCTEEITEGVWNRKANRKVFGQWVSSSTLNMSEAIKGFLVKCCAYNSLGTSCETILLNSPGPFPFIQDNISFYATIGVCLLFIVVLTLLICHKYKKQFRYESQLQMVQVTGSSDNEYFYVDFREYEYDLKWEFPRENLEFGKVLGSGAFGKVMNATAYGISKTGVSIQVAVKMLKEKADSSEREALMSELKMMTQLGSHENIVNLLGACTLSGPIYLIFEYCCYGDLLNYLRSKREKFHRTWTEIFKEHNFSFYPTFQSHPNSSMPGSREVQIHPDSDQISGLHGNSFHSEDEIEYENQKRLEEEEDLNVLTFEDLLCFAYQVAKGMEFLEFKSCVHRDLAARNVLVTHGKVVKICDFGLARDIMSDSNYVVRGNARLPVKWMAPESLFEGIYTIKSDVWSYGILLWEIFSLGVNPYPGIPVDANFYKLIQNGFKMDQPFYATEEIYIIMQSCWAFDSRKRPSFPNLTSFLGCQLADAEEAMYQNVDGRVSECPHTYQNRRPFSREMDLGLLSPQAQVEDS
The experiment in a line: TR-FRET kinase activity assay, FLT3. Format: biochemical. The following applies: ATP at Km, 60 minutes. The procedure:
as §1, §2

Counter-ions that a name gives are not always drawn. Bounds are passed on as bounds.

Regarding `CCCCNc1cc2c(cn1)c(OC1CCNCC1)ncc2[C@H]1CC[C@H](O)CC1` [Compound 107], the IC50 in assay [1] and in assay [2] was not above 100 nM in each case.
For the compound `CCCCC[C@H](C)Nc1ncc2c(=O)n(C3CCOCC3)cc([C@H]3CC[C@H](O)CC3)c2n1` [Compound 108], the IC50 (commonly the midpoint of a concentration-inhibition curve) lay within 100 to 1000 nM in assay [1] and 1000 to 10000 nM in assay [2].
For the compound `CCCCNc1cc2c(cn1)c(=O)n(C1CCNCC1)cc2[C@H]1CC[C@H](O)CC1` [Compound 109, 6-(butylamino)-4-((1r,4r)-4-hydroxycyclohexyl)-2-(piperidin-4-yl)-2,7-naphthyridin-1(2H)-one hydrochloride], the IC50 in assay [1] and in assay [2] was 100 to 1000 nM in each case.
In the case of `CC[C@@H](C)Nc1ncc2c(OC3CCN(C)CC3)ncc([C@H]3CC[C@H](O)CC3)c2n1` [Compound 195], the IC50 was in the range of 100 to 1000 nM in assay [1] and 1000 to 10000 nM in assay [2].
On to `CCC[C@@H](C)Nc1ncc2c(OC3CCNCC3)ncc([C@H]3CC[C@H](O)CC3)c2n1` [Compound 196], for which the values for the IC50 in assay [1] and in assay [2] were 100 to 1000 nM and 1000 to 10000 nM, respectively.
`Cc1cccc(Nc2ncc3c(OC4CCNCC4)ncc([C@H]4CC[C@H](O)CC4)c3n2)c1` [Compound 197]: the values for the IC50 in assay [1] and in assay [2] were not above 100 nM and 100 to 1000 nM, respectively.
As to `Cc1cc(Cl)ccc1Nc1ncc2c(OC3CCNCC3)ncc([C@H]3CC[C@H](O)CC3)c2n1` [Compound 198], the IC50 in assay [1] is 1000 to 10000 nM; in assay [2], 100 to 1000 nM.
In the case of `CCCC(C)Nc1ncc2c(=O)n([C@H]3CCN(C)C[C@@H]3F)cc([C@H]3CC[C@H](O)CC3)c2n1` (stereo partly drawn) [Compound 199], the IC50 in assay [1] and in assay [2] was 1000 to 10000 nM each time.
For `CCCC(C)Nc1ncc2c(=O)n([C@@H]3CCCN(C)C3)cc([C@H]3CC[C@H](O)CC3)c2n1` (stereo partly drawn) [Compound 200], the IC50 in assay [1] and in assay [2] was 1000 to 10000 nM each time.
As to `CCCC(C)Nc1ncc2c(=O)n(C3CCN(C4COC4)CC3)cc([C@H]3CC[C@H](O)CC3)c2n1` (stereo partly drawn) [Compound 201], the 50% inhibitory concentration (IC50) lay within 100 to 1000 nM in assay [1] and 1000 to 10000 nM in assay [2].
`CC(Nc1ncc2c(OC3CCNCC3)ncc([C@H]3CC[C@H](O)CC3)c2n1)c1ccncc1` (stereo partly drawn) [Compound 202]: the IC50 in assay [1] and in assay [2] was 1000 to 10000 nM each time.
Turning to `CCCC(C)Nc1ncc2c(OC3CCNCC3)ncc([C@H]3CC[C@H](O)CC3)c2n1` (stereo partly drawn) [Compound 203], the IC50 in assay [1] and in assay [2] was not above 100 nM each time.
Take `CCC[C@@H](C)Nc1ncc2c(OC3CCNCC3)ncc([C@H]3CC[C@@H](O)CC3)c2n1` [Compound 204]: the IC50 in assay [1] and in assay [2] was 100 to 1000 nM throughout.
With `O[C@H]1CC[C@H](c2cnc(OC3CCNCC3)c3cnc(Nc4cccc(Cl)c4)nc32)CC1` [Compound 205], the IC50 in assay [1] and in assay [2] was not above 100 nM throughout.
Regarding `O[C@H]1CC[C@H](c2cnc(OC3CCNCC3)c3cnc(Nc4ccc(Cl)cc4)nc32)CC1` [Compound 206], the IC50 in assay [1] and in assay [2] was not above 100 nM in each case.
For the compound `CCc1cccc(Nc2ncc3c(OC4CCNCC4)ncc([C@H]4CC[C@H](O)CC4)c3n2)c1` [Compound 207], the IC50 in assay [1] was not above 100 nM; in assay [2], 100 to 1000 nM.
As to `CCC[C@@H](C)Nc1ncc2c(OC3CCN(C)CC3)ncc([C@H]3CC[C@H](O)CC3)c2n1` [Compound 208], the IC50 in assay [1] and in assay [2] was 100 to 1000 nM throughout.
On to `Cc1ccc(Cl)cc1Nc1ncc2c(OC3CCNCC3)ncc([C@H]3CC[C@H](O)CC3)c2n1` [Compound 209], for which the IC50 in assay [1] lay within 1000 to 10000 nM; in assay [2], 100 to 1000 nM.
`O[C@H]1CC[C@H](c2cnc(OC3CCNCC3)c3cnc(Nc4ccccc4)nc32)CC1` [Compound 210]: the IC50 in assay [1] and in assay [2] was not above 100 nM in each case.
As for `O[C@H]1CC[C@H](c2cnc(OC3CCNCC3)c3cnc(NC4CCOCC4)nc32)CC1` [Compound 211], the IC50 in assay [1] and in assay [2] was 100 to 1000 nM each time.
In the case of `CC(C)CNc1ncc2c(OC3CCNCC3)ncc([C@H]3CC[C@H](O)CC3)c2n1` [Compound 212], the IC50 in assay [1] and in assay [2] was 100 to 1000 nM in each case.

(Values after patent US20200291018A1, “TAM KINASE INHIBITORS” (SYROS PHARMACEUTICALS, INC., priority 2017, published 2020).)
